Assay results published in patent US20050130252A1, “Stabilized susceptibility tests of aerobic pathogens” (Wyeth Holdings Corporation, priority 2003, published 2005).
≈ marks a conversion by molar mass, not a printed value. Read-outs that look alike come from different tables or passages of the source.

System: E. faecalis ATCC 29212
Experiment: Broth microdilution MIC
Format: cell-based, Enterococcus faecalis
Settings: Enterococcus faecalis
Description: The process for preparing susceptibility test medium are the following steps: • a. Preparing Mueller Hinton Broth II medium by adding 22 grams powdered media to 1.0 liter distilled water; • b. Autoclaving (121° C., 15 psi, 15 minutes) and cooling the medium; • c. Adding Oxyrase® up to about 10% final volume and keeping at 35-37° C. in an incubator for 30 minutes; • d. Adding about 50 μL to each well of a 96 well microtiter plate; • e. Weighing drug and adding broth to drug to bring up to about (standard 128 μg/ml); • f. Adding 50 μL of the drug to the first column of the titer plate; • g. Diluting by two-fold serial diluting across or down the plate. • h. Preparing a Prompt™ inoculum at 10^8 CFU/ml; • i. Diluting inoculum 1:100 in the broth at […] in 9.9 ml (1:100) is 10^6 colony forming units (CFU) forming the adjusted inoculum; • j. Adding 50 μL of the adjusted inoculum to the wells of the microtiter plate; • k. Incubating the plates at 35-37° C. for 18-22 hours; and • l. Reading, with the unaided eye, the MIC.
The in vitro activities of tigecycline and control antibiotics were determined by the broth microdilution method as recommended by the NCCLS. (National Committee for Clinical Laboratory Standards, 2003. Methods for Dilution Antimicrobial Susceptibility Tests for Bacteria That Grow Aerobically; Approved Standards: M7-A6, Sixth ed, vol. 23., National Committee for Clinical Laboratory Standards Wayne, Pa.) was used for the standard procedures. MBH with 5% lysed horse blood was used for testing S. pneumoniae and Haemophilus Test Medium was used for testing H. influenzae. Oxyrase® (Oxyrase Inc, Mansfield, Ohio) was used according to the manufacturer's instructions by adding 1 ml of Oxyrase® to 50 ml of media. Media age studies were performed by preparing MHB in multiple flasks, then storing the media under various conditions. MICs were usually performed in duplicate on each day of testing. Storage under anaerobic conditions was conducted in an anaerobic chamber (MACS MG 1000, Don Whitley Scientific LTD). The pH of the media was determined by pH meter (Corning 430). A comparison of the in vitro activity of tigecycline by agar and broth dilution methodolgies with and without Oxyrase® against clinical isolates is shown in Table 1.

`CN(C)c1cc(NC(=O)CNC(C)(C)C)c(O)c2c1C[C@H]1C[C@H]3[C@H](N(C)C)C(O)=C(C(N)=O)C(=O)[C@@]3(O)C(O)=C1C2=O` [Tigecycline, tigecycline] showed an MIC (ATCC29212, 0 h, E. faecalis ATCC 29212, Day 0, Pre-prepared media, room temperature, N = 6) of 0.25 mg/L (≈ 0.427 µM), an MIC (ATCC29212, 0 h, E. faecalis ATCC 29212, Day 0, media Fresh from Powder 2° C., N = 6) of 0.03 mg/L (≈ 0.0512 µM) and an MIC (ATCC29212, 0 h, E. faecalis ATCC 29212, Day 0, media Fresh from Powder, room temperature, N = 6) of 0.03 mg/L (≈ 0.0512 µM). The MIC (ATCC29212, 24 h, E. faecalis ATCC 29212, Day 1, Pre-prepared media, room temperature, N = 6) was 0.25 mg/L (≈ 0.427 µM), the MIC (ATCC29212, 24 h, E. faecalis ATCC 29212, Day 1, media Fresh from Powder 2° C., N = 6) was 0.03 mg/L (≈ 0.0512 µM) and the MIC (ATCC29212, 24 h, E. faecalis ATCC 29212, Day 1, media Fresh from Powder, room temperature, N = 6) was 0.03 to 0.06 mg/L (≈ 0.0512 to 0.102 µM). It also gave an MIC (ATCC29212, 168 h, E. faecalis ATCC 29212, Day 7, Pre-prepared media, room temperature, N = 6) of 0.25 mg/L (≈ 0.427 µM), an MIC (ATCC29212, 168 h, E. faecalis ATCC 29212, Day 7, media Fresh from Powder 2° C., N = 6) of 0.06 mg/L (≈ 0.102 µM) and an MIC (ATCC29212, 168 h, E. faecalis ATCC 29212, Day 7, media Fresh from Powder, room temperature, N = 6) of 0.12 to 0.25 mg/L (≈ 0.205 to 0.427 µM). For the same molecule, the MIC (ATCC29212, 336 h, E. faecalis ATCC 29212, Day 14, Pre-prepared media, room temperature, N = 6) was 0.25 to 0.5 mg/L (≈ 0.427 to 0.854 µM), the MIC (ATCC29212, 336 h, E. faecalis ATCC 29212, Day 14, media Fresh from Powder 2° C., N = 6) was 0.25 mg/L (≈ 0.427 µM) and the MIC (ATCC29212, 336 h, E. faecalis ATCC 29212, Day 14, media Fresh from Powder, room temperature, N = 6) was 0.25 mg/L (≈ 0.427 µM). It also gave an MIC (ATCC29212, 336 h, read-out: Minimal Inhibitory Concentration, E. faecalis ATCC29212, media Aged Aerobic (2 weeks at RT under room air), N = 4) of 0.25 mg/L (≈ 0.427 µM), an MIC (ATCC29212, 504 h, E. faecalis ATCC 29212, Day 21, Pre-prepared media, room temperature, N = 6) of 0.25 to 0.5 mg/L (≈ 0.427 to 0.854 µM) and an MIC (ATCC29212, 504 h, E. faecalis ATCC 29212, Day 21, media Fresh from Powder 2° C., N = 6) of 0.25 mg/L (≈ 0.427 µM). For the same molecule, the MIC (ATCC29212, 504 h, E. faecalis ATCC 29212, Day 21, media Fresh from Powder, room temperature, N = 6) was 0.25 mg/L (≈ 0.427 µM), the MIC (ATCC29212, 672 h, E. faecalis ATCC 29212, Day 28, Pre-prepared media, room temperature, N = 6) was 0.25 to 0.5 mg/L (≈ 0.427 to 0.854 µM) and the MIC (ATCC29212, 672 h, E. faecalis ATCC 29212, Day 28, media Fresh from Powder 2° C., N = 6) was 0.12 to 0.25 mg/L (≈ 0.205 to 0.427 µM). The MIC (ATCC29212, 672 h, E. faecalis ATCC 29212, Day 28, media Fresh from Powder, room temperature, N = 6) was 0.12 to 0.25 mg/L (≈ 0.205 to 0.427 µM), the MIC (ATCC29212, read-out: Minimal Inhibitory Concentration (modal value), E. faecalis ATCC29212, Aged Media + Oxyrase, N = 8) was 0.12 mg/L and the MIC (ATCC29212, read-out: Minimal Inhibitory Concentration (modal value), E. faecalis ATCC29212, Aged media, N = 8) was 0.5 mg/L (≈ 0.854 µM). It also gave an MIC (ATCC29212, read-out: Minimal Inhibitory Concentration (modal value), E. faecalis ATCC29212, Fresh Media + Oxyrase, N = 8) of 0.06 mg/L, an MIC (ATCC29212, read-out: Minimal Inhibitory Concentration (modal value), E. faecalis ATCC29212, Freshly Prepared Media, N = 8) of 0.06 to 0.12 mg/L (≈ 0.102 to 0.205 µM) and an MIC (ATCC29212, read-out: Minimal Inhibitory Concentration, E. faecalis ATCC 29212, 2% Oxyrase) of 0.03 mg/L (≈ 0.0512 µM). The MIC (ATCC29212, read-out: Minimal Inhibitory Concentration, E. faecalis ATCC29212, Aged Media + Oxyrase, N = 8) was 0.12 mg/L, the MIC (ATCC29212, read-out: Minimal Inhibitory Concentration, E. faecalis ATCC29212, Aged media, N = 8) was 0.25 to 0.5 mg/L (≈ 0.427 to 0.854 µM) and the MIC (ATCC29212, read-out: Minimal Inhibitory Concentration, E. faecalis ATCC29212, Commercially Prepared media, N = 4) was 0.12 to 0.25 mg/L (≈ 0.205 to 0.427 µM). It also gave an MIC (ATCC29212, read-out: Minimal Inhibitory Concentration, E. faecalis ATCC29212, Fresh Media + Oxyrase, N = 8) of 0.06 mg/L, an MIC (ATCC29212, read-out: Minimal Inhibitory Concentration, E. faecalis ATCC29212, Freshly Prepared Media, N = 8) of 0.06 to 0.12 mg/L (≈ 0.102 to 0.205 µM) and an MIC (ATCC29212, read-out: Minimal Inhibitory Concentration, E. faecalis ATCC29212, Freshly Prepared media, N = 4) of 0.03 mg/L (≈ 0.0512 µM). For the same molecule, the MIC (ATCC29212, read-out: Minimal Inhibitory Concentration, E. faecalis ATCC 29212, MHB II + 0.05% Catalase) was 0.5 mg/L, the MIC (ATCC29212, read-out: Minimal Inhibitory Concentration, E. faecalis ATCC 29212, MHB II + 0.05% L-ascorbic Acid) was 1 mg/L and the MIC (ATCC29212, read-out: Minimal Inhibitory Concentration, E. faecalis ATCC 29212, MHB II + 0.05% L-cysteine) was 0.12 mg/L. The MIC (ATCC29212, read-out: Minimal Inhibitory Concentration, E. faecalis ATCC 29212, MHB II + 0.05% Sodium Pyruvate) was 0.25 mg/L, the MIC (ATCC29212, read-out: Minimal Inhibitory Concentration, E. faecalis ATCC 29212, MHB II + 0.05% Thioglycolate) was 0.12 mg/L and the MIC (ATCC29212, read-out: Minimal Inhibitory Concentration, E. faecalis ATCC 29212, MHB II + 2% Oxyrase) was 0.03 to 0.06 mg/L.
